Measured values from paper PMC9386018, “A lymphatic-absorbed multi-targeted kinase inhibitor for myelofibrosis therapy” (Nature Communications, 2022).
“And” between values parts separate entries of the source, which are not always exact repeats. Equal entries are not always repeated. Where two headings read alike, the source gives them in different places.

Tests used:
[1] = target: BRAF (Homo sapiens, UniProt P15056); assay: Target kinase 10-point inhibition assay, BRAF; type: biochemical; conditions: replicates
Source text: The average percent kinase inhibition from replicate data was ranked low to high, converted to a compatible identifier format, then input into Coral Human Kinome Visualization software for presentation analysis. […] Scaling of evolutionary distance for PI kinases is only relative and is based on literature analysis[62],[63]. Average percent kinome inhibition values from replicate data are supplied in Source Data file. […] Corrected data was normalized to vehicle treated control values, and dose response percent kinase activity was analyzed by non-linear regression for determination of IC50 values.

[2] = system: phosphorylated AKT (pAKT; pS473) in SET-2 cells; assay: Phospho-flow cytometry of pAKT in SET-2 cells; type: cell-based, human; conditions: 5 μM, 16 h
Method: The human megakaryoblastic cell line, SET-2 (ATCC), was maintained in RPMI 1640 supplemented with 20% FBS and incubated for 16 h at 10^6 cells mL^−1 with LP-182 or vehicle (DMSO; dimethyl sulfoxide), then washed in ice-cold PBS, and collected for flow cytometry analysis. Single-cell suspensions of mouse spleen were prepared from MPL^W515L MF mice (below) in RPMI 1640 supplemented with 5% FCS. Red blood cells were lysed by ammonium chloride-mediated red cell lysis (RCL) buffer and passed through a nylon mesh, and then cells were counted. For intracellular phospho-protein staining, SET-2 or spleen cells were fixed and then permeabilized using BD Phospho-flow fixation buffer and Perm-Buffer III (BD biosciences) according to the manufacturer’s protocol. Intracellular phospho-protein staining was performed using fluorochrome-conjugated antibodies, pAKT (pS473)-Alexa Fluor 647 (MB89-61) or pERK1/2 (pT202/pY204)-Alexa Fluor 647 (20 A). All phospho-flow antibodies were purchased from BD Biosciences. […] Flow cytometry was performed on a FACS Fortessa (Becton, Dickinson and Co.) using FACSDiVa software, and data analyzed using FlowJo software (Tree Star). […]

[3] = Bioavailability studies: recovery in feces and urine; type: in vivo, mouse; conditions: for LP-182 Recovered (mg) Feces / LP-182 Recovered (mg) Urine / Fa: individual replicates; for Fa: from Feces, read-out: LP-182 Bioavailability (%)
Method: Seven groups of female CD-1 mice (n = 4 per dosing group) received a single oral dose of LP-182 at 0, 100, 200, 400, 600, 800 and 1000 mg kg^−1 solubilized in Maisine CC. […] Urine and fecal samples were collected over 24 h at 24, 48 and 72 h intervals using metabolic cages, and quantitation of LP-182 in each sample was determined by the University of Michigan Pharmacokinetics Core. Briefly, water was added to fecal samples at an average ratio of 2.5 ± 1.6 (w/w) water:feces to generate fecal homogenates using a tissue homogenizer (Omni International TH), then approximately 200 mg of homogenate was diluted 5-fold with 20% (v/v) acetonitrile in water prior to analysis. […] The cumulative amount of compound recovered over 72 h in feces and urine was determined from sample analyte concentrations provided by the core, then converted to percent recovered by normalization to the amount of compound administered. […] LP-182 dose (mg kg^−1):LP-182 administered (mg) is 100:2.7; 200:5.4; 400:10.8; 600:16.2; 800:21.6; 1000:27.0. Data was generated from n = 4 individual animals per compound dose.

[4] = Fractionation of lymphatic fluid into lipoprotein fractions by ultracentrifugation; type: in vivo; conditions: rat lymphatic fluid, 50 mg kg^−1 intra-duodenal
Method: Briefly, acetonitrile was added to a final concentration of 60–80% to bone marrow, whole blood, plasma, lymphatic fluid, lymphatic proteo-lipid sub-fractions, or mesenteric lymph node samples for compound extraction. Extraction was performed by shaking and/or bead rupture using a Precellys Evolution tissue homogenizer (Bertin Technologies SAS). […] Optimization of MS and MS/MS parameters for MRM quantitation and maximum sensitivity of individual compounds was performed using SCIEX Analyst software (AB Sciex). […] All LC-MS/MS acquisitions were performed with an independent standard curve for each group of analytes and for each individual run. All solvents utilized were of Optima LC-MS Grade (Fisher Scientific). Data was generated from n ≥ 2 individual animals per compound per study condition or dose.

BRAF, sequence (P15056 whole entry): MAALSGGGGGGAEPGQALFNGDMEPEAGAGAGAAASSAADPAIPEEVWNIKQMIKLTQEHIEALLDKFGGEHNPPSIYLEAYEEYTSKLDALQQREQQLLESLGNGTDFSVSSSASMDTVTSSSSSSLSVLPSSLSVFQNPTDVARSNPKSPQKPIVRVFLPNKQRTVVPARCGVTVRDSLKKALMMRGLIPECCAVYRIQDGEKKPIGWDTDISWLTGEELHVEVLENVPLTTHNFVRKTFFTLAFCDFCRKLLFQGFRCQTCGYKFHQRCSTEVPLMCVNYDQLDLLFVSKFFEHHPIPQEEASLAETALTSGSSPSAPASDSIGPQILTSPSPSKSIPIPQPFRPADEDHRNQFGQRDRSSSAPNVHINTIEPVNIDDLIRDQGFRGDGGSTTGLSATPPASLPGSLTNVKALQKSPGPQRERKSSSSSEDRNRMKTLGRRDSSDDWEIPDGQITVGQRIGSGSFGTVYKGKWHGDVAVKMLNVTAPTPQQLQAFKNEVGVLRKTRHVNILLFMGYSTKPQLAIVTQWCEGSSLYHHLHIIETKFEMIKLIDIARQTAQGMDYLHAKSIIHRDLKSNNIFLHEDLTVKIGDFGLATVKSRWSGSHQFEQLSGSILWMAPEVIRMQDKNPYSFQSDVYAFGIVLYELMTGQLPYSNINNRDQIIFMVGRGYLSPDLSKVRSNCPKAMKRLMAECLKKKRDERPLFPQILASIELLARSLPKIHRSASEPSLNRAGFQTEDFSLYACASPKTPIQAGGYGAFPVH

## O=C(NOCCOCCOCCOCCC(=O)N1CCN(c2cnc3ccc(-c4cnc(Cl)c(NS(=O)(=O)c5ccc(F)cc5)c4)cc3n2)CC1)c1ccc(F)c(F)c1Nc1ccc(I)cc1F [LP-182, N-(2-(2-(2-(3-(4-(7-(6-chloro-5-((4-fluorophenyl)sulfonamido)pyridin-3-yl)quinoxalin-2-yl)piperazin-1-yl)-3-oxopropoxy)ethoxy)ethoxy)ethoxy)-3,4-difluoro-2-((2-fluoro-4-iodophenyl)amino)benzamide]
[1]; 0.495 nM
  activity at 0.000495 µM: 100%
[1]; 0.495 nM, 0.000495 µM
  Kinase Activity (%): 102% and 96% and 94% and 93%
[1]; 1.52 nM
  activity at 0.00152 µM: 101%
[1]; 1.52 nM, 0.00152 µM
  Kinase Activity (%): 98% and 95% (2×) and 94%
[1]; 4.57 nM
  activity at 0.00457 µM: 90%
[1]; 4.57 nM, 0.00457 µM
  Kinase Activity (%): 94% and 95% and 98% and 89% and 93%
[1]; 41.2 nM, 0.0412 µM
  Kinase Activity (%): 49% and 38% and 54% and 59% and 53% (2×)
[1]; 123 nM, 0.123 µM
  Kinase Activity (%): 14% and 12% and 41% and 34% (2×) and 38%
[1]; 1110 nM, 1.11 µM
  Kinase Activity (%): -5% and -3% and 2% (2×) and 4% and 5%
[1]; 3330 nM, 3.33 µM
  Kinase Activity (%): -5% (2×) and 1% (3×) and 4%
[1]; 10000 nM, 10 µM
  Kinase Activity (%): -2% and -5% and 2% and 1% and 7% and -1%
[2]
  decrease of downstream activation of AKT: ~ 50%
[3]; Dose 100 mg/kg
  LP-182 Recovered (mg) Feces: 0.2704 mg and 0.2192 mg and 0.3774 mg and 0.8162 mg
  LP-182 Recovered (mg) Urine: 0.001008 mg and 1.367e-05 mg and 0.0001025 mg and 0.00204 mg
[3]; Dose 200 mg/kg
  LP-182 Recovered (mg) Feces: 0.8447 mg and 0.5724 mg and 1.4803 mg and 1.5068 mg
  LP-182 Recovered (mg) Urine: 4.24e-05 mg and 0.0002221 mg and 5.303e-05 mg and 0.0002304 mg
[3]; Dose 400 mg/kg
  LP-182 Recovered (mg) Feces: 1.4042 mg and 2.0055 mg and 2.0997 mg and 2.356 mg
  LP-182 Recovered (mg) Urine: 0.0004111 mg and 0.000386 mg and 0.0002292 mg and 0.001169 mg
[3]; Dose 600 mg/kg
  LP-182 Recovered (mg) Feces: 3.3135 mg and 1.6755 mg and 3.7882 mg and 2.917 mg
  LP-182 Recovered (mg) Urine: 0.00017 mg and 0.02442 mg and 0.000379 mg and 0.001062 mg
[3]; Dose 800 mg/kg
  LP-182 Recovered (mg) Feces: 3.1521 mg and 5.2995 mg and 6.9935 mg and 3.8874 mg
  LP-182 Recovered (mg) Urine: 2.655e-05 mg and 0.001833 mg and 0.0008829 mg and 0.0002937 mg
[3]; Dose 1000 mg/kg
  LP-182 Recovered (mg) Feces: 3.5565 mg and 6.4352 mg and 5.241 mg and 6.6537 mg
  LP-182 Recovered (mg) Urine: 0.0001091 mg and 2.205e-05 mg and 2.702e-05 mg and 0.001664 mg
[3]; female, CD-1, mouse, feces, oral, 200 mg/kg, Dose 200 mg/kg
  Fa: 84.4%
[3]; female, CD-1, mouse, feces, oral, 400 mg/kg, Dose 400 mg/kg
  Fa: 87%
[3]; female, CD-1, mouse, feces, oral, 600 mg/kg, Dose 600 mg/kg
  Fa: 79.5%
[3]; female, CD-1, mouse, feces, oral, 800 mg/kg, Dose 800 mg/kg
  Fa: 85.4%
[3]; female, CD-1, mouse, feces, oral, 1000 mg/kg, Dose 1000 mg/kg
  Fa: 86.8%
[3]; female, CD-1, mouse, mice, oral, feces collected after 24 h, read-out: recovery from fecal samples, % of total recovered
  dose excreted at 24 h: ~95%
[3]; female, CD-1, mouse, mice, oral, feces collected after 48 h, read-out: recovery from fecal samples, % of total recovered
  dose excreted at 48 h: 5%
[3]; Dose 100 mg/kg, 100 mg/kg
  Fa: 90% and 91.9% and 86% and 69.8%
[3]; Dose 200 mg/kg, 200 mg/kg
  Fa: 89.4% and 72.6% and 72.1%
[3]; Dose 400 mg/kg, 400 mg/kg
  Fa: 81.4% and 80.6% and 78.2%
[3]; Dose 600 mg/kg, 600 mg/kg
  Fa: 89.7% and 76.6% and 82%
[3]; Dose 800 mg/kg, 800 mg/kg
  Fa: 75.5% and 67.6% and 82%
[3]; Dose 1000 mg/kg, 1000 mg/kg
  Fa: 76.2% and 80.6% and 75.4%
[3]; mice, oral 100-1000 mg kg^−1, over 72 h
  dose-independent fecal excretion (% drug recovered) of intact compound: approximately 20%
[3]; mice, oral, all time points (24, 48, 72 h)
  amount recovered in the urine: negligible amounts
[3]; mice, difference of administered and recovered in feces over 72 h
  oral bioavailability, lower threshold limit: ≥ 80%
[4]
  association with VLDL fraction, % of total: 9.7%
  association with chylomicron fraction, % of total: 8.0%
